Among the data in patent publication US9181305B2, “Exendin-4 peptide analogues” (SANOFI, priority 2012, dated 2015) are EC50 values, retold here.

*1 amine or outer side, *2 acyl side, *3 side chain or, on linkers, in order; H or OH if unused. Where a SMILES comes first, the peptide text is derived from it. Side-chain parts run from the residue outwards. [ ]: non-standard residue; d: D form. The star is where a group is joined. γGlu = O=C(O)[C@H](CCC(=O)[*:2])N[*:1]; Palmitoyl = CCCCCCCCCCCCCCCC(=O)*; Cha = N[C@@H](CC1CCCCC1)C(=O)O; Orn = NCCC[C@H](N)C(=O)O; Aib = CC(C)(N)C(=O)O

The assay deals with T1, human GLP-1 receptor (hGLP-1 R) (Homo sapiens, UniProt P43220).
T1 construct: expressed in transfected cells; host or cells: HEK-293
T1 sequence (P43220 24-463): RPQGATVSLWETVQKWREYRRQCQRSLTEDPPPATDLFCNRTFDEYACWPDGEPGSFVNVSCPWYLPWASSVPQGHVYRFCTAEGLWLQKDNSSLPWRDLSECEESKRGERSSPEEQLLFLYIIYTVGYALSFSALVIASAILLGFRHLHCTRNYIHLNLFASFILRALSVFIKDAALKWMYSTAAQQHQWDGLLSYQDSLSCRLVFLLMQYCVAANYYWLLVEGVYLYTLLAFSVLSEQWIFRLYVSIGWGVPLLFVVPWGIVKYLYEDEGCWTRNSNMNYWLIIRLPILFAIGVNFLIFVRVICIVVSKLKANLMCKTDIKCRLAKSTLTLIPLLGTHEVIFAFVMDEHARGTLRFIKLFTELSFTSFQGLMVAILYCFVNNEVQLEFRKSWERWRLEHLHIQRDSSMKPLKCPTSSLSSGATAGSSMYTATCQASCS
The assay can be described thus: cAMP response (HTRF) of HEK-293 cells stably expressing human GLP-1 receptor. To be noted: HEK-293 cells expressing human GLP-1 receptor, cAMP formation. The class given is cell-based. As to the method: cAMP content of cells was determined using a kit from Cisbio Corp. (cat. no. 62AM4PEC) based on HTRF (Homogenous Time Resolved Fluorescence). For preparation, cells were split into T175 culture flasks and grown overnight to near confluency in medium (DMEM/10% FBS). Medium was then removed and cells washed with PBS lacking calcium and magnesium, followed by proteinase treatment with accutase (Sigma-Aldrich cat. no. A6964). Detached cells were washed and resuspended in assay buffer (1×HBSS; 20 mM HEPES, 0.1% BSA, 2 mM IBMX) and cellular density determined. […] For measurement, 25 μl of test compound in assay buffer was added to the wells, followed by incubation for 30 minutes at room temperature.
On the technique in general: In TR-FRET formats the signal depends on donor and acceptor labels being close together.
What is called EC50 is the concentration that produces a half-maximal response. Molecule `CCCCCCCCCCCCCCCC(=O)N[C@@H](CCC(=O)NCCCC[C@H](NC(=O)[C@H](CO)NC(=O)[C@@H]1CCCN1C(=O)[C@@H]1CCCN1C(=O)[C@@H]1CCCN1C(=O)[C@H](C)NC(=O)CNC(=O)[C@H](CO)NC(=O)[C@H](CO)NC(=O)[C@@H]1CCCN1C(=O)CNC(=O)CNC(=O)[C@H](CC(N)=O)NC(=O)[C@H](CCCCN)NC(=O)[C@H](CC(C)C)NC(=O)[C@H](Cc1c[nH]c2ccccc12)NC(=O)[C@H](CCC(=O)O)NC(=O)[C@@H](NC(=O)[C@H](Cc1ccccc1)NC(=O)[C@H](CC(=O)O)NC(=O)[C@H](CCC(N)=O)NC(=O)[C@H](C)NC(=O)[C@H](CCCNC(=N)N)NC(=O)[C@H](CCCNC(=N)N)NC(=O)[C@H](CO)NC(=O)[C@H](CCC(=O)O)NC(=O)[C@H](CCSC)NC(=O)[C@H](CCC(N)=O)NC(=O)[C@H](CCCCN)NC(=O)[C@H](CO)NC(=O)[C@H](CC(C)C)NC(=O)[C@H](CC(=O)O)NC(=O)[C@H](CO)NC(=O)[C@@H](NC(=O)[C@H](Cc1ccccc1)NC(=O)[C@@H](NC(=O)CNC(=O)[C@H](CCC(N)=O)NC(=O)[C@@H](CO)NC(=O)[C@@H](N)Cc1c[nH]cn1)[C@@H](C)O)[C@@H](C)O)[C@@H](C)CC)C(N)=O)C(=O)O` [(61)] (H-H[dS]QGTFTSDLSKQMESRRAQDFIEWLKNGGPSSGAPPPSK([γGlu-Palmitoyl])-NH2) had an EC50 of 4.2 pM. Under `CCCCCCCCCCCCCCCC(=O)N[C@@H](CCC(=O)NCCCC[C@H](NC(=O)[C@H](CO)NC(=O)[C@@H]1CCCN1C(=O)[C@@H]1CCCN1C(=O)[C@@H]1CCCN1C(=O)[C@H](C)NC(=O)CNC(=O)[C@H](CO)NC(=O)[C@H](CO)NC(=O)[C@@H]1CCCN1C(=O)CNC(=O)CNC(=O)[C@H](CC(N)=O)NC(=O)[C@H](CCCCN)NC(=O)[C@H](CC(C)C)NC(=O)[C@H](Cc1c[nH]c2ccccc12)NC(=O)[C@H](CCC(=O)O)NC(=O)[C@@H](NC(=O)[C@H](Cc1ccccc1)NC(=O)[C@H](CC(=O)O)NC(=O)[C@H](CCC(N)=O)NC(=O)[C@H](C)NC(=O)[C@H](CCCNC(=N)N)NC(=O)[C@H](CCCNC(=N)N)NC(=O)[C@H](CCCCN)NC(=O)[C@H](CC(=O)O)NC(=O)[C@H](CCSC)NC(=O)[C@H](CCC(N)=O)NC(=O)[C@H](CCCCN)NC(=O)[C@H](CO)NC(=O)[C@H](CC(C)C)NC(=O)[C@H](CC(=O)O)NC(=O)[C@H](CO)NC(=O)[C@@H](NC(=O)[C@H](Cc1ccccc1)NC(=O)[C@@H](NC(=O)CNC(=O)[C@H](CCC(N)=O)NC(=O)[C@@H](CO)NC(=O)[C@@H](N)Cc1c[nH]cn1)[C@@H](C)O)[C@@H](C)O)[C@@H](C)CC)C(N)=O)C(=O)O` [(69)] (H-H[dS]QGTFTSDLSKQMDKRRAQDFIEWLKNGGPSSGAPPPSK([γGlu-Palmitoyl])-NH2) stands 7.6 pM. Under `CCCCCCCCCCCCCCCC(=O)N[C@@H](CCC(=O)NCCCC[C@H](NC(=O)[C@H](CO)NC(=O)[C@@H]1CCCN1C(=O)[C@@H]1CCCN1C(=O)[C@@H]1CCCN1C(=O)[C@H](C)NC(=O)CNC(=O)[C@H](CO)NC(=O)[C@H](CO)NC(=O)[C@@H]1CCCN1C(=O)CNC(=O)CNC(=O)C(C)(C)NC(=O)[C@H](CCCCN)NC(=O)[C@H](CC(C)C)NC(=O)[C@H](Cc1c[nH]c2ccccc12)NC(=O)[C@H](CCC(=O)O)NC(=O)[C@@H](NC(=O)[C@H](Cc1ccccc1)NC(=O)[C@H](CC(=O)O)NC(=O)[C@H](CCC(N)=O)NC(=O)[C@H](C)NC(=O)[C@H](CCCNC(=N)N)NC(=O)[C@H](CCCNC(=N)N)NC(=O)[C@H](CO)NC(=O)[C@H](CC(=O)O)NC(=O)[C@H](CCSC)NC(=O)[C@H](CCC(N)=O)NC(=O)[C@H](CCCCN)NC(=O)[C@H](CO)NC(=O)[C@H](CC(C)C)NC(=O)[C@H](CC(=O)O)NC(=O)[C@H](CO)NC(=O)[C@@H](NC(=O)[C@H](Cc1ccccc1)NC(=O)[C@@H](NC(=O)CNC(=O)[C@H](CCC(N)=O)NC(=O)[C@@H](CO)NC(=O)[C@@H](N)Cc1c[nH]cn1)[C@@H](C)O)[C@@H](C)O)[C@@H](C)CC)C(N)=O)C(=O)O` [(72)] (H-H[dS]QGTFTSDLSKQMDSRRAQDFIEWLK[Aib]GGPSSGAPPPSK([γGlu-Palmitoyl])-NH2) stands 5.2 pM.

The molecule `CCCCCCCCCCCCCCCC(=O)N[C@@H](CCC(=O)NCCCC[C@H](NC(=O)[C@@H]1CCCN1C(=O)[C@@H]1CCCN1C(=O)[C@@H]1CCCN1C(=O)[C@H](C)NC(=O)CNC(=O)[C@H](CO)NC(=O)[C@H](CO)NC(=O)[C@@H]1CCCN1C(=O)CNC(=O)CNC(=O)C(C)(C)NC(=O)[C@H](CCCCN)NC(=O)[C@H](CC(C)C)NC(=O)[C@H](Cc1c[nH]c2ccccc12)NC(=O)[C@H](CCC(=O)O)NC(=O)[C@@H](NC(=O)[C@H](Cc1ccccc1)NC(=O)[C@H](CC(=O)O)NC(=O)[C@H](CCC(N)=O)NC(=O)[C@H](C)NC(=O)[C@H](CCCNC(=N)N)NC(=O)[C@H](CCCNC(=N)N)NC(=O)[C@H](CO)NC(=O)[C@H](CCC(=O)O)NC(=O)[C@H](CCSC)NC(=O)[C@H](CCC(N)=O)NC(=O)[C@H](CCCCN)NC(=O)[C@H](CO)NC(=O)[C@H](CC(C)C)NC(=O)[C@H](CC(=O)O)NC(=O)[C@H](CO)NC(=O)[C@@H](NC(=O)[C@H](Cc1ccccc1)NC(=O)[C@@H](NC(=O)CNC(=O)[C@H](CCC(N)=O)NC(=O)[C@@H](CO)NC(=O)[C@@H](N)Cc1c[nH]cn1)[C@@H](C)O)[C@@H](C)O)[C@@H](C)CC)C(N)=O)C(=O)O` [(80)] (H-H[dS]QGTFTSDLSKQMESRRAQDFIEWLK[Aib]GGPSSGAPPPK([γGlu-Palmitoyl])-NH2) came in with an EC50 of 10.8 pM. Turning to `CCCCCCCCCCCCCCCC(=O)N[C@@H](CCC(=O)NCCC[C@H](NC(=O)[C@H](CO)NC(=O)[C@@H]1CCCN1C(=O)[C@@H]1CCCN1C(=O)[C@@H]1CCCN1C(=O)[C@H](C)NC(=O)CNC(=O)[C@H](CO)NC(=O)[C@H](CO)NC(=O)[C@@H]1CCCN1C(=O)CNC(=O)CNC(=O)[C@H](CO)NC(=O)[C@H](CCCCN)NC(=O)[C@H](CC(C)C)NC(=O)[C@H](Cc1c[nH]c2ccccc12)NC(=O)[C@H](CCC(=O)O)NC(=O)[C@@H](NC(=O)[C@H](Cc1ccccc1)NC(=O)[C@H](CC(=O)O)NC(=O)[C@H](CCC(N)=O)NC(=O)[C@H](C)NC(=O)[C@H](CCCNC(=N)N)NC(=O)[C@H](CCCNC(=N)N)NC(=O)[C@H](CO)NC(=O)[C@H](CCC(=O)O)NC(=O)[C@H](CCSC)NC(=O)[C@H](CCC(N)=O)NC(=O)[C@H](CCCCN)NC(=O)[C@H](CO)NC(=O)[C@H](CC(C)C)NC(=O)[C@H](CC(=O)O)NC(=O)[C@H](CO)NC(=O)[C@@H](NC(=O)[C@H](Cc1ccccc1)NC(=O)[C@@H](NC(=O)CNC(=O)[C@H](CCC(N)=O)NC(=O)[C@@H](CO)NC(=O)[C@@H](N)Cc1c[nH]cn1)[C@@H](C)O)[C@@H](C)O)[C@@H](C)CC)C(N)=O)C(=O)O` [(88)] (H-H[dS]QGTFTSDLSKQMESRRAQDFIEWLKSGGPSSGAPPPS[Orn]([γGlu-Palmitoyl])-NH2), the midpoint of the response, the EC50, lay at 5.1 pM. For the molecule `CCCCCCCCCCCCCCCC(=O)N[C@@H](CCC(=O)NCCCC[C@H](NC(=O)[C@H](CO)NC(=O)[C@@H]1CCCN1C(=O)[C@@H]1CCCN1C(=O)[C@@H]1CCCN1C(=O)[C@H](C)NC(=O)CNC(=O)[C@H](CO)NC(=O)[C@H](CO)NC(=O)[C@@H]1CCCN1C(=O)CNC(=O)CNC(=O)[C@H](CO)NC(=O)[C@H](CCCCN)NC(=O)[C@H](CC(C)C)NC(=O)[C@H](Cc1c[nH]c2ccccc12)NC(=O)[C@H](CCC(=O)O)NC(=O)[C@@H](NC(=O)[C@H](Cc1ccccc1)NC(=O)[C@H](CC(C)C)NC(=O)[C@H](CCCNC(=N)N)NC(=O)[C@H](C)NC(=O)[C@H](CCCNC(=N)N)NC(=O)[C@H](CCCNC(=N)N)NC(=O)[C@H](CO)NC(=O)[C@H](CCC(=O)O)NC(=O)[C@H](CCSC)NC(=O)[C@H](CCC(N)=O)NC(=O)[C@H](CCCCN)NC(=O)[C@H](CO)NC(=O)[C@H](CC(C)C)NC(=O)[C@H](CC(=O)O)NC(=O)[C@H](CO)NC(=O)[C@@H](NC(=O)[C@H](Cc1ccccc1)NC(=O)[C@@H](NC(=O)CNC(=O)[C@H](CCC(N)=O)NC(=O)[C@@H](CO)NC(=O)[C@@H](N)Cc1c[nH]cn1)[C@@H](C)O)[C@@H](C)O)[C@@H](C)CC)C(N)=O)C(=O)O` [(91)] (H-H[dS]QGTFTSDLSKQMESRRARLFIEWLKSGGPSSGAPPPSK([γGlu-Palmitoyl])-NH2), the EC50 worked out at 6.7 pM. The EC50 values of the last two molecules are within 1.5-fold of each other. Under `CCCCCCCCCCCCCCCC(=O)N[C@@H](CCC(=O)NCCCC[C@H](NC(=O)[C@H](CO)NC(=O)[C@@H]1CCCN1C(=O)[C@@H]1CCCN1C(=O)[C@@H]1CCCN1C(=O)[C@H](C)NC(=O)CNC(=O)[C@H](CO)NC(=O)[C@H](CO)NC(=O)[C@@H]1CCCN1C(=O)CNC(=O)CNC(=O)[C@H](C)NC(=O)[C@H](CCCCN)NC(=O)[C@H](CC(C)C)NC(=O)[C@H](Cc1c[nH]c2ccccc12)NC(=O)[C@H](CCC(=O)O)NC(=O)[C@@H](NC(=O)[C@H](Cc1ccccc1)NC(=O)[C@H](CC(=O)O)NC(=O)[C@H](CCC(N)=O)NC(=O)[C@H](C)NC(=O)[C@H](CCCNC(=N)N)NC(=O)[C@H](CCCNC(=N)N)NC(=O)[C@H](CO)NC(=O)[C@H](CCC(=O)O)NC(=O)[C@H](CC1CCCCC1)NC(=O)[C@H](CCC(N)=O)NC(=O)[C@H](CCCCN)NC(=O)[C@H](CO)NC(=O)[C@H](CC(C)C)NC(=O)[C@H](CC(=O)O)NC(=O)[C@H](CO)NC(=O)[C@@H](NC(=O)[C@H](Cc1ccccc1)NC(=O)[C@@H](NC(=O)CNC(=O)[C@H](CCC(N)=O)NC(=O)[C@@H](CO)NC(=O)[C@@H](N)Cc1c[nH]cn1)[C@@H](C)O)[C@@H](C)O)[C@@H](C)CC)C(N)=O)C(=O)O` [(95)] (H-H[dS]QGTFTSDLSKQ[Cha]ESRRAQDFIEWLKAGGPSSGAPPPSK([γGlu-Palmitoyl])-NH2) stands 6.7 pM.
